These results are taken from paper PMC4982760, “Small-molecule inhibitors identify the RAD52-ssDNA interaction as critical for recovery from replication stress and for survival of BRCA2 deficient cells” (eLife, 2016).

The test system of assay [1] is MUS81. In words: Anaphase bridges in aphidicolin-treated cells (MUS81 activity). To be noted: GM01604, 0.2 µM aphidicolin 24h, increasing concentration of compound. It counts as cell-based, human. On the procedure:
Figure 5. Inhibiting the RAD52-ssDNA interaction interferes with RAD52/MUS81-mediated DSB formation essential for replication fork recovery in check point deficient cells. (a) Representative images showing fields of cells from the comet assay for untreated, as well as from UCN01 (300 nM) and HU (2 mM) treated cells in the presence and absence of ‘1’, ‘6’, and siRAD52. (b) ‘1’ and ‘6’ at 1 or 25 μM recapitulate RAD52 depletion. GM1604 cells, transfected or not with siRNAs against RAD52, were treated as indicated, in the presence or absence of the inhibitor. At the end of treatment, DSBs were analyzed by neutral comet assay. Data are presented as the mean ± SEM from two independent experiments; p values are shown in the graph when differences are statistically significant. (c–d) Inhibitors ‘1’ and ‘6’, respectively decrease the mean tail moment following HU treatment with IC50 values ranging from mid nanomolar to low micromolar. Cells were treated as in (b). Data are from three independent experiments. DOI: http://dx.doi.org/10.7554/eLife.14740.012 Figure 5—figure supplement 1. […] (a) GM01604 wild-type fibroblasts were transfected with CTRL or MUS81 siRNA. Forty eight hours after transfection the fibroblasts were lysed and analysed by WB with the indicated antibodies. […] (c) The presence of anaphase bridges, as shown in the representative images, was scored in DAPI-stained cells. […]

For assay [2], the system named is GM01604 cells. In words: LIVE/DEAD cell viability assay. To be noted: 1 µM compound. In kind it is cell-based, human. As for the experimental part: GM01604 cells were transfected with siRNAs directed against GFP (Ctrl), or against MUS81 (Qiagen), BRCA2 (Sigma-Aldrich), and RAD52 (Qiagen) 48 hr prior to addition of 1 µM ‘1’. Where indicated, the conditions of pathological replication were induced by treating cells with 2 mM HU and 300 nM UCN01 for 6 hr or by 18 hr treatment with 2 mM HU, in the presence or absence of ‘1’. Viability was evaluated by the LIVE/DEAD assay (Sigma-Aldrich) according to the manufacturer’s instructions. Cell number was counted in randomly chosen fields and expressed as percent of dead cells (number of red nuclear stained cells divided by the total cell number) corrected for the cell loss observed in the population. For each time point, at least 200 cells were counted.

For assay [3], the target named is T1, interaction between RAD52 and RPA proteins (Homo sapiens, UniProt P43351).
T1 construct: made in house
In words: Ni-NTA pull-down of the RAD52-RPA interaction. The following applies: 3 μM RAD52, 3 μM RPA, 3 μM compound. In kind it is binding.

The target in assay [4] is T2, RPA (Homo sapiens, UniProt P15927+P27694+P35244).
T2 construct: made in house
In words: WaterLOGSY NMR binding to RPA. The following applies: 20-40 μM compound, 3.3 μM RPA. From the text:
(§1) To confirm that the selected compounds bind RAD52, we employed water-ligand observation with gradient spectroscopy (WaterLOGSY), an NMR technique, which is based on transfer of magnetization from bulk water to the protein-bound compound of interest ([Dalvit et al., 2001], [2000]). In WaterLOGSY spectrum, if a compound binds to a protein, the compound will receive negative nuclear Overhauser effects (NOEs) due to the slow tumbling of the protein-compound complex, leading to a positive WaterLOGSY peak. […] Similarly, the binding of ‘6’to RAD52 is evident from the positive WaterLOGSY peaks that are clearly detected for this compound (Figure 3a).
(§2) Compound binding to RAD52 and RPA proteins was analyzed using water-ligand observation with gradient spectroscopy (WaterLOGSY) NMR experiments ([Dalvit et al., 2001], [2000]). The WaterLOGSY spectra of compounds in the presence of RAD52 or RPA were acquired using a water NOE mixing time of 1 s and a T2 relaxation filter of 50 ms just before data acquisition to suppress the broad signals derived from protein. The protein buffer used in the experiments contains 10 mM Tris-d11, 75 mM KCl, 0.25 mM EDTA, pH 7.5, and 10% D20. All NMR data were acquired on a Bruker Avance II 800 MHz NMR spectrometer equipped with a sensitive cryoprobe and recorded at 25°C. The ^1H chemical shifts were referenced to 2,2-dimethyl-2-silapentane-5-sulfonate (DSS). NMR spectra were processed using NMR Pipe ([Delaglio et al., 1995]) and analysed using NMR View ([Johnson and Blevins, 1994]).

The target in assay [5] is T3, RAD52-dsDNA interaction (Homo sapiens, UniProt P43351).
T3 construct: made in house
T3 sequence (P43351 1-418): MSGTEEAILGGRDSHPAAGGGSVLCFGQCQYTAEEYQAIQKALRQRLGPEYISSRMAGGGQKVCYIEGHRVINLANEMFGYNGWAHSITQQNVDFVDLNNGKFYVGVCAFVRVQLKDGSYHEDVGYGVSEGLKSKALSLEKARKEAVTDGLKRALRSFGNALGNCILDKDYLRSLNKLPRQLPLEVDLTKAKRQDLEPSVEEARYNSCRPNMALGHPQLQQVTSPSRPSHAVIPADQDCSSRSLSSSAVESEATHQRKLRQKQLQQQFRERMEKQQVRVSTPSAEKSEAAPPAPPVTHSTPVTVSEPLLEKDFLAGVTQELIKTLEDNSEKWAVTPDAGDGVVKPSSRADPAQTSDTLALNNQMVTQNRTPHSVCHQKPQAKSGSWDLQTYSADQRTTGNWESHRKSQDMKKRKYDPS
In words: FRET-based RAD52-dsDNA binding assay. To be noted: 1 nM dsDNA, 10 nM RAD52.

In assay [6] the target is T4, RAD52 (Homo sapiens, UniProt P43351).
T4 construct: made in house
T4 sequence (P43351 1-418): T3 sequence (P43351 1-418)
In words: WaterLOGSY NMR binding to RAD52. To be noted: 20-40 μM compound, 3.3 μM RAD52.
Text: as §1, §2

T1 sequence (P27694 whole entry partner, one chain of several): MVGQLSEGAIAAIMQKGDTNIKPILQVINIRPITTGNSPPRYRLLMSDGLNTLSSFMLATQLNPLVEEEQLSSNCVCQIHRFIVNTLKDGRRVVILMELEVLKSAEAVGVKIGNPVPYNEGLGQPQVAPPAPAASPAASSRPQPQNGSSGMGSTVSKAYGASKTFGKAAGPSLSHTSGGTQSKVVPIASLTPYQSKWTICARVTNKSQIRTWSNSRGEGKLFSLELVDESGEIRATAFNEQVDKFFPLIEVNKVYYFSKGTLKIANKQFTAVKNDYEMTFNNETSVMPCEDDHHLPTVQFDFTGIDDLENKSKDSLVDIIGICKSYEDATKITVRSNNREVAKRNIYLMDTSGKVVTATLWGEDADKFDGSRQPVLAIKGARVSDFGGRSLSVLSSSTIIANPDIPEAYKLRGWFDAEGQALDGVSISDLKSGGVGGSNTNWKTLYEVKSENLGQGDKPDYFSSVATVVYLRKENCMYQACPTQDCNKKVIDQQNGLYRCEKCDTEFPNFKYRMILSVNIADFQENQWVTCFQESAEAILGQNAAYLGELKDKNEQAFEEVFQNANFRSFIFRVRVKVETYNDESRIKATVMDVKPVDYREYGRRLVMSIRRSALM
T1 sequence (P15927 whole entry partner, one chain of several): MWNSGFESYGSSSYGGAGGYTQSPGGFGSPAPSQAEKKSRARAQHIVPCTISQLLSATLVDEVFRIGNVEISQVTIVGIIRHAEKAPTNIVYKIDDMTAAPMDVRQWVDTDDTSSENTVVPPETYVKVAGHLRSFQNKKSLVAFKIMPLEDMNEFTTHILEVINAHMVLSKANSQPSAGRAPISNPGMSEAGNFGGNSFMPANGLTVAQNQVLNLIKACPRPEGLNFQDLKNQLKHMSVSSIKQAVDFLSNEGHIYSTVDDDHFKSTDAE
T1 sequence (P35244 whole entry partner, one chain of several): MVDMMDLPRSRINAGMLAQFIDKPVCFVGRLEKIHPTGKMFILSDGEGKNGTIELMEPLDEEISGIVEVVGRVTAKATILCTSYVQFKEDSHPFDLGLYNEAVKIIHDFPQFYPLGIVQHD
T2 sequence (P27694 whole entry): as the sequence (P27694 whole entry partner, one chain of several) above
T2 sequence (P15927 whole entry): as the sequence (P15927 whole entry partner, one chain of several) above
T2 sequence (P35244 whole entry): as the sequence (P35244 whole entry partner, one chain of several) above

Consider `Oc1cc(O)c2c(c1)O[C@H](c1cc(O)c(O)c(O)c1)[C@H](O)C2` [Compound 1, (−)−Epigallocatechin], for which the “effect on MUS81 activity (anaphase bridges)” value in assay [1] is “does not affect MUS81 activity”. Also, the cell death in assay [2] (BRCA2-depleted GM01604, after replication stress (HU + UCN01)) is recorded as ~ 80%. In addition, the dead cells was roughly 60% in assay [2] (MUS81-depleted GM01604, checkpoint-deficient, HU treated) and “approximately 40%” in assay [2] (MUS81-depleted GM01604, untreated). Moreover, the “effect on the RAD52-RPA interaction” value in assay [3] is “neither ‘1’ nor ‘6’ interfered with the interaction between the two proteins”. Further, the “binding to RPA (WaterLOGSY)” value in assay [4] is given as “neither binds to RPA”. Moreover, in assay [5], the “effect on the RAD52-dsDNA interaction” value is “had no effect on the RAD52-dsDNA interaction”. In addition, the “binding to RAD52 (WaterLOGSY)” value in assay [6] is given as “physically interact with RAD52 protein”.
